Laboratory results published in US20150080465A1 (priority 2013, published 2015).

Columns and labels:
[1] = tested on: patients with type 2 diabetes and overt nephropathy; details: in vivo; cited from earlier work
[2] = monkeys, equivalent dosages orally in gelatin capsules; cited from earlier work
[3] = tested on: monocrotaline (MCT)-induced pulmonary arterial hypertension; details: rat, in vivo

For `COc1ccccc1Oc1c(NS(=O)(=O)c2ccc(C)cn2)nc(-c2ccncc2)nc1OC` [Avosentan], the “Fluid overload-related adverse events, serious and non-serious” value [1] is given as “increased only within the first month of treatment”.

For `COC(=O)C12CCC(C)(C)CC1C1C(=O)C=C3C4(C)C=C(C#N)C(=O)C(C)(C)C4CCC3(C)C1(C)CC2` (stereo not drawn) [Form B], the Bioavailability [2] is given as “higher than that of Form A”.

With `CCCc1nn(C)c2c(=O)[nH]c(-c3cc(S(=O)(=O)N4CCN(C)CC4)ccc3OCC)nc12` [sildenafil] the Pulmonary edema [3] was “completely abrogated”.
